Tested on: German cockroaches (Blattlla germanica)
Assay: Spray test on German cockroaches in glass box (Test example 1)
Type: in vivo
Settings: 4.2 ml sprayed, 10 min exposure, observed 4 days thereafter
Experimental: Two grams (2 g) of each of Indoxacarb MP and Imiprothrin are mixed with 98 g of a mixture of xylene/Sorpol SM200X (surfactant produced by Toho Chemical)=85/15 to give each formulation of Indoxacarb MP and Imiprothrin. The formulations for the following tests are produced by mixing the Indoxacarb MP formulation with the Imiprothrin formulation at the designated ratio. The formulations for the tests are diluted with water to the designated concentration to give the preparations for the test.
Into the glass box, 4.2 ml of the preparation obtained above were sprayed with a spray gun. Ten minutes after spraying, the cockroaches were transferred to a plastic container and were provided with food and water. The mortality of the cockroaches was observed 4 days thereafter.

SMILES | Mortality (%) (concentration of the preparation 0.5 % by weight) | Mortality (%) (concentration of the preparation 0.4 % by weight)
COC(=O)N(C(=O)N1COC2(C(=O)OC)Cc3cc(Cl)ccc3C2=N1)c1ccc(OC(F)(F)F)cc1 (racemic) [Indoxacarb MP, methyl (RS)-7-chloro-2,5-dihydro-2-[[(methoxycarbonyl)[4-(trifluoromethoxy)phenyl]amino]carbornyl]indeno[1,2-e][1,3,4]oxadiazine-4a(3H)-carboxylate] | 25 | 
C#CCN1CC(=O)N(COC(=O)C2C(C=C(C)C)C2(C)C)C1=O (mixture of isomers) [Imiprothrin, 2,5-dioxo-3-prop-2-ynylimidazolidin-1-ylmethyl (1R)-trans,cis-2,2-dimethyl-3-(2-methylprop-1-enyl)cyclopropanecarboxylate] |  | 0
